The record followed here is ChEMBL document CHEMBL3804811 (J Med Chem, 2016).

The structures appear in SMILES notation. Where only a bound is given, the exact number is not on record here.

A short description of data set [1]: Ratio of drug level in brain to plasma in Harlan nu/nu mouse at 240 mg/kg, po administered per day for 2 weeks measured 6 hrs post last dose by LC-MS/MS analysis. Format: ADME, organism-based. The note with it: read-out: BPR.
For data set [2], the target named is T1, Eukaryotic translation initiation factor 2-alpha kinase 3 (Homo sapiens, UniProt Q9NZJ5).
T1 sequence (Q9NZJ5 whole entry): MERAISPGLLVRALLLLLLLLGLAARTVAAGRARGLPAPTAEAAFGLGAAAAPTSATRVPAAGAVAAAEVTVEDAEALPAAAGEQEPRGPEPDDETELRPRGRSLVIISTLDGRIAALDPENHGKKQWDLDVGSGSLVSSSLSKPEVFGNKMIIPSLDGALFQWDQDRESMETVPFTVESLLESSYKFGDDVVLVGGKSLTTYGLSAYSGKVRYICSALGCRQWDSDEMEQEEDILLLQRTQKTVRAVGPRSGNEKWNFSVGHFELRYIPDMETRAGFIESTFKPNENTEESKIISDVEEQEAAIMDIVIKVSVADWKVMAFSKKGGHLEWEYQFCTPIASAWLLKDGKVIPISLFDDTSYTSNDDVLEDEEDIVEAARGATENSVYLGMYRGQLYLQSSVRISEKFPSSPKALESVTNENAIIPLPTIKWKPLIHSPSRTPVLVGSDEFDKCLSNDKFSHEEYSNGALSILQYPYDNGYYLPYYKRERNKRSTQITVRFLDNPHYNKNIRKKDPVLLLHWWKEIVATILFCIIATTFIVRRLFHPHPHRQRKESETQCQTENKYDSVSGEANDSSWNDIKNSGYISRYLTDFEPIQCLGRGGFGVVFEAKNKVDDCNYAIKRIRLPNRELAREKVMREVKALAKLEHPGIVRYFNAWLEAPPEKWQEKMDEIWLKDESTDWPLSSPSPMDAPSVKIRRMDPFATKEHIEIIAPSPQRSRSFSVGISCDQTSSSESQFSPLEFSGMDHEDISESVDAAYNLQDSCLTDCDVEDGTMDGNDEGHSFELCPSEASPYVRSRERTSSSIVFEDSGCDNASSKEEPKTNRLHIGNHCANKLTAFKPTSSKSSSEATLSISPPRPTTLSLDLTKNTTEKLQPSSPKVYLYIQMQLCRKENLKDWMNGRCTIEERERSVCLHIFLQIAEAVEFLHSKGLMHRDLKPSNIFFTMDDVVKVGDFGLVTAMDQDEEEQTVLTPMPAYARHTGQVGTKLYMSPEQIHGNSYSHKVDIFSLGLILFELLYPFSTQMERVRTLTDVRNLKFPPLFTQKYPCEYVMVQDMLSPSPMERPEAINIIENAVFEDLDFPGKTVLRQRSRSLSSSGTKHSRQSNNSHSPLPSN
Description: Inhibition of PERK (unknown origin) in presence of gamma33-ATP.

Data set [3] in a line: Antiproliferative activity against human SU-DHL1 cells expressing ALK protein incubated for 72 hrs by cell titer-glo assay. Format: functional, cell-based. The following applies: SU-DHL-1, 72 h. On the technique in general: ATP-based viability assays read luminescence as a measure of living cells.
Data set [4] can be described thus: Antiproliferative activity against human SR786 cells expressing ALK protein incubated for 72 hrs by cell titer-glo assay. Format: functional, cell-based. The following applies: SR-786, 72 h.
Data set [5] concerns the target T2, Inhibitor of nuclear factor kappa-B kinase subunit beta (Homo sapiens, UniProt O14920).
T2 sequence (O14920 whole entry): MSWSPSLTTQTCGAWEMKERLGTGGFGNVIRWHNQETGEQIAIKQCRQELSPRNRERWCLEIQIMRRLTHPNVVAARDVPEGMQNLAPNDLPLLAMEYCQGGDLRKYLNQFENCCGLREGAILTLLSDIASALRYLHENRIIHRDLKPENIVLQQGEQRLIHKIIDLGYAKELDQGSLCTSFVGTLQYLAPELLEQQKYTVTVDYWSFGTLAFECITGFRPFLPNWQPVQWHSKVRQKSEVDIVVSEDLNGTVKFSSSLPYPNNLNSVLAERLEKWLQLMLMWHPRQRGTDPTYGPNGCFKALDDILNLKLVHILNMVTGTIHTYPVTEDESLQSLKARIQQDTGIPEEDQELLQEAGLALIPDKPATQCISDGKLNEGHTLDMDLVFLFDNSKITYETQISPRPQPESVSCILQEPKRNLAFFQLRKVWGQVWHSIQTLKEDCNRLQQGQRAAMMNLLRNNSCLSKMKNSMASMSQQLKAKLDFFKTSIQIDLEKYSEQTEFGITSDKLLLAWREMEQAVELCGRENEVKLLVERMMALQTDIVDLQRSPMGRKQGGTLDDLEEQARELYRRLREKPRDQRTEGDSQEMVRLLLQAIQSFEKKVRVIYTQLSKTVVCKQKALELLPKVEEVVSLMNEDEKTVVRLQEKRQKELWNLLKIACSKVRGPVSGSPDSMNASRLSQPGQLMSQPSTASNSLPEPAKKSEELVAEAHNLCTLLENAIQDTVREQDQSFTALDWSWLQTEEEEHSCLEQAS
In words: Inhibition of IKK2 (unknown origin) in presence of gamma33-ATP.

Data set [6] in a line: Antiproliferative activity against human KARPAS299 cells incubated for 72 hrs by cell titer-glo assay. The following applies: KARPAS-299, 72 h.
Data set [7] can be described thus: Cmax in Beagle dog at 10 mg/kg, iv administered as single dose by LC-MS/MS analysis. The following applies: in vivo. Set-up: dose 10 mg/kg, route intravenous. The data set is classed as ADME, organism-based, Canis lupus familiaris.
The nature of data set [8]: Antiproliferative activity against human SUP-M2 cells expressing ALK protein incubated for 72 hrs by cell titer-glo assay. The data set is classed as functional, cell-based. The following applies: SUP-M2, 72 h.
Data set [9] addresses Vascular endothelial growth factor receptor 2 (Homo sapiens, UniProt P35968). In words: Inhibition of VEGFR2 (unknown origin) in presence of gamma33-ATP.
Data set [10] is described as follows: Drug uptake in Harlan nu/nu mouse brain at 240 mg/kg, po administered per day for 2 weeks measured 6 hrs post last dose by LC-MS/MS analysis. Format: ADME, organism-based. The note with it: read-out: Drug uptake.
Data set [11] is described as follows: Oral bioavailability in Sprague-Dawley rat at 10 mg/kg administered as single dose by LC-MS/MS analysis. Format: ADME, organism-based. The note with it: in vivo.
Data set [12] in a line: Tmax in Harlan nu/nu mouse at 10 mg/kg, po administered as single dose by LC-MS/MS analysis. Format: ADME, organism-based. The note with it: in vivo.

Sequence of Vascular endothelial growth factor receptor 2 (P35968 whole entry): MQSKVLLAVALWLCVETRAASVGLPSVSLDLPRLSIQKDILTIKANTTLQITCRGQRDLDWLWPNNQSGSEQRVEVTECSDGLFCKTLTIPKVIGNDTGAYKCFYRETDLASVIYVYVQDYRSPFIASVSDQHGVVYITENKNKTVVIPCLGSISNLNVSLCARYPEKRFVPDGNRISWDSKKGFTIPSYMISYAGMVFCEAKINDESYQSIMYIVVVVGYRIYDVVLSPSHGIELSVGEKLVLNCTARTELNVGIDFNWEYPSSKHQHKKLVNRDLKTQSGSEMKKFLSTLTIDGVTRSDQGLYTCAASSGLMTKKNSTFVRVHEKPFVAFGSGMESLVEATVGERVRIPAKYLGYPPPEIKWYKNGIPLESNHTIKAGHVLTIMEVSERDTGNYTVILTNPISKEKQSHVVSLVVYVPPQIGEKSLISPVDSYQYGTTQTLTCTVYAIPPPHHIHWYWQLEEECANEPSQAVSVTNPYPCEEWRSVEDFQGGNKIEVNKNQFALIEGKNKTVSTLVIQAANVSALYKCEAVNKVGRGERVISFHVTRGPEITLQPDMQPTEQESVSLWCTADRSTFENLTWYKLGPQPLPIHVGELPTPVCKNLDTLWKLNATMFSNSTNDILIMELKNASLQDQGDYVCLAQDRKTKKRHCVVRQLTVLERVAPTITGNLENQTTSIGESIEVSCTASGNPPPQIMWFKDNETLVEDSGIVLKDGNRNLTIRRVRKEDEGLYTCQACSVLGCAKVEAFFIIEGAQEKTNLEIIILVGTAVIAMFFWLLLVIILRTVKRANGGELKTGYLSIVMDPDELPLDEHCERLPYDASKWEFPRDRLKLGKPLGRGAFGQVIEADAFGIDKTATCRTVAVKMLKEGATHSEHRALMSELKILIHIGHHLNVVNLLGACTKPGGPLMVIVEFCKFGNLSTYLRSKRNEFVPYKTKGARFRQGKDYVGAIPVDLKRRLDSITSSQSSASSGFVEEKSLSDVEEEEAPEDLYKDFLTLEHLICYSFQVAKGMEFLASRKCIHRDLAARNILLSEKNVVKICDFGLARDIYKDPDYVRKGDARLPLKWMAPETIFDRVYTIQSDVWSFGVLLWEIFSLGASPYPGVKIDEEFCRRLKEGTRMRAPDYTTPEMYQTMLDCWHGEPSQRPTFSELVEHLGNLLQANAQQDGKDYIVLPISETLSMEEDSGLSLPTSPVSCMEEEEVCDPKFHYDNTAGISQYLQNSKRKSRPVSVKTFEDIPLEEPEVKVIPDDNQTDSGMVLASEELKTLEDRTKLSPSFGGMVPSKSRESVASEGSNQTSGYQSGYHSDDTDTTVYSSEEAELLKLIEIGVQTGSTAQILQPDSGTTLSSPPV

Broadly, the IC50 is the concentration that gives 50% inhibition. As usually defined, the Cmax is the maximum level reached in the sampled fluid or tissue. For orientation: bioavailability means the share of a dose that reaches the circulation, judged against a reference dose that is usually intravenous. A high value points to good availability. One may read the Tmax as the time from dosing to the highest level. `CN1CCN(c2ccc(C(=O)Nc3n[nH]c4ccc(Cc5cc(F)cc(F)c5)cc34)c(NC3CCOCC3)c2)CC1` [ENTRECTINIB]: the Kp at 6 h in data set [1] is 0.43. Further, the concentration for half-maximal inhibition (IC50) in data set [2] is greater than 10 µM; in data set [3] it was 0.024 µM; in data set [4], 0.081 µM; in data set [5] it was greater than 10 µM; in data set [6] it was 0.031 µM; in data set [8] it was 0.041 µM. Also, in [9], the IC50 is greater than 1 µM. In [7], this compound yielded a peak concentration (Cmax) of 8.6 µM. Further, the concentration at 6 h in data set [10] was found to be 1.94 µM. For the same compound, the bioavailability in [11] amounted to 43%. Moreover, in data set [12], the time of peak concentration (Tmax) came out at 2.5 h.
